From publication PMC8881610 (Nature Communications, 2022)
Positions count from the first letter of the chain named.

What was measured:
Test in all cases: cAMP accumulation assay (LANCE Ultra cAMP kit), GIPR WT, mutant or modified constructs
Format in all cases: cell-based
Design in all cases: acylated tirzepatide to the full-length or modified; Flag; expressed in transfected cells; host or cells: HEK293T
[1] = molecular target: T1, GIPR (Homo sapiens, UniProt P48546, Q30A); details: GIPR Q30A, HEK293T
T1 sequence (P48546 22-466 Q30A): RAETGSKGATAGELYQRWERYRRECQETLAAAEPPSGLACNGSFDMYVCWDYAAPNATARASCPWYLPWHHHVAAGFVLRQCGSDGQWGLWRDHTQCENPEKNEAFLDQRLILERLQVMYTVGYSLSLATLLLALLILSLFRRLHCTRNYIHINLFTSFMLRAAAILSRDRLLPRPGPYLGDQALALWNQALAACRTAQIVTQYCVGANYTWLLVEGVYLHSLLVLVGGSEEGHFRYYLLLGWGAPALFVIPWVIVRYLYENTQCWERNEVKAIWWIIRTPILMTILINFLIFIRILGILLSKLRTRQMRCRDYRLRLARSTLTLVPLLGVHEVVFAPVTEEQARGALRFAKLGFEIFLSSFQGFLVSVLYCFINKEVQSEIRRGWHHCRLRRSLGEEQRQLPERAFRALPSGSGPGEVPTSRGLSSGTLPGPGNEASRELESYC
Procedure, shortened: (§1)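 HEK293T cells transiently transfected with human GIPR WT or mutant constructs (pcDNA3.1), used after 24 h. The cells were stimulated with peptide agonists for 40 min at RT in HBSS with 5 mM HEPES, 0.1% BSA or casein, and 0.5 mM IBMX. cAMP was read by LANCE Ultra TR-FRET (Eu-cAMP tracer/ULight anti-cAMP, 1 h RT, 620/650 nm).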

[2] = molecular target: T2, GIPR (Homo sapiens, UniProt P48546, W209A); details: GIPR W209A, HEK293T
T2 sequence (P48546 22-466 W209A): T1 sequence (P48546 22-466 Q30A) with A9Q, W188A
Procedure, shortened: as §1

[3] = molecular target: T3, GIPR (Homo sapiens, UniProt P48546, W90A); details: HEK-293T, GIPR W90A; HEK293T
T3 sequence (P48546 22-466 W90A): T1 sequence (P48546 22-466 Q30A) with A9Q, W69A
Procedure, shortened: as §1

[4] = read-out: cAMP pEC50 (converted)

## CCCCCCCCCCCCCCCC(=O)N[C@@H](CCC(=O)NCCCC[C@H](NC(=O)[C@H](CC(=O)O)NC(=O)[C@H](CO)NC(=O)[C@@H](NC(=O)[C@H](Cc1ccccc1)NC(=O)[C@@H](NC(=O)CNC(=O)[C@H](CCC(N)=O)NC(=O)C(C)(C)NC(=O)[C@@H](N)Cc1c[nH]cn1)[C@@H](C)O)[C@@H](C)O)C(=O)N[C@@H](CO)C(=O)N[C@@H](CCCCN)C(=O)N[C@@H](Cc1ccc(O)cc1)C(=O)N[C@@H](CC(C)C)C(=O)N[C@@H](CC(=O)O)C(=O)N[C@@H](CCC(=O)O)C(=O)N[C@@H](CCCNC(=N)N)C(=O)N[C@@H](C)C(=O)N[C@@H](C)C(=O)N[C@@H](CCC(N)=O)C(=O)N[C@@H](CC(=O)O)C(=O)N[C@@H](Cc1ccccc1)C(=O)N[C@H](C(=O)N[C@@H](CCC(N)=O)C(=O)N[C@@H](Cc1c[nH]c2ccccc12)C(=O)N[C@@H](CC(C)C)C(=O)N[C@@H](CC(C)C)C(=O)N[C@@H](CC(=O)O)C(=O)NCC(=O)NCC(=O)N1CCC[C@H]1C(=O)N[C@@H](CO)C(=O)N[C@@H](CO)C(=O)NCC(=O)N[C@@H](C)C(=O)N1CCC[C@H]1C(=O)N1CCC[C@H]1C(=O)N1CCC[C@H]1C(=O)N[C@@H](CO)C(N)=O)C(C)C)C(=O)O [Peptide 20]
[1]; [4]
  EC50: 0.0427 nM
[1]; HEK-293T
  Emax: 100 ± 1.79%
[2]; [4]
  EC50: 0.00363 nM
[2]; HEK-293T
  Emax: 100 ± 1.45%
[3]
  Emax: 98 ± 4.59%
